Assay results as given in PMC6950057, “Toxicity, Pharmacokinetics, and Gut Microbiome of Oral Administration of Sesterterpene MHO7 Derived from a Marine Fungus” (Marine Drugs, 2019).

Assay: Stability in simulated gastric fluid (SGF)
Type: in vitro ADME
Details: for percentage concentration remaining in SGF: at 8 h
Description: SGF was prepared with modifications according to Lee et al. (2012) by mixing 100 mL of distilled water with a pH value set to 2.0 with hydrochloric acid and 1 g pepsin solution (800–2000 U/mg of protein). SIF was produced according to USP specifications (Test Solutions, United States Pharmacopeia 35, NF 30, 2012). Monobasic potassium phosphate (0.68 g) was dissolved in 25 mL of water. Then, 7.7 mL of 0.2 M NaOH was added to adjust the pH to 6.8. To this, 1 g of pancreatin was added and shaken gently until dissolved and the volume adjusted to 100 mL with water. Pancreatin was added after adjusting the pH of the solution to 6.8 to avoid precipitation of the enzyme.
Aliquots (199 µL) of SGF and SIF were placed in 1.5 mL microcentrifuge tubes and incubated at 37 °C for 10 min in a water bath, respectively. Different concentrations of MHO7 (1 µL) were added to each of the above microcentrifuge tubes to start the reaction with being incubated at 37 °C at 250 rpm in a shaking water bath. The reaction was stopped by adding ice ACN (800 µL) to each tube at intervals of 0, 0.5, 1, 2, 4, 6, and 8 h. The samples were vortexed for 15 min and centrifuged at 4 °C and 15,000 rpm for 15 min. After centrifuging the supernatant layer was taken directly for LC-MS analysis. Each experiment was carried out in triplicate, and average values were plotted. QC samples were prepared in the same way of inactivating pepsin in SGF incubation system at the concentrations of 1, 0.1 and 0.01 μM·L^−1 for HQC, MQC and LQC, respectively.

CC(C)=C/C=C/[C@H](C)[C@H]1CC[C@]2(C)C[C@@H]3C(C)=CC(=O)[C@H]3/C(C=O)=C\C[C@@H]12 [MHO7, 6-epi-ophiobolin G]
percentage concentration remaining in SGF (MHO7 added at 0.05 mM·L^−1, 37 °C): 76.19 ± 0.99%
percentage concentration remaining in SGF (initial addition 0.5 mM·L^−1, 37 °C): 80.2 ± 3.15%
stability in SGF (under the concentration of 5 mM·L^−1): stable
